EP4458358A1, “PYRIDAZINE COMPOUNDS FOR ANTIFIBROTIC THERAPY” (Tietze Chemical Consulting UG, priority 2023, dated 2024)

Key:
Assay type in all cases: cell-based
HRO159N = assay: ELISA of secreted pro-collagen I alpha 1 (Type I Collagen) from human dermal fibroblasts HRO159N; settings: 250 µg
Method: (§1) Compounds reconstitution and stock solution: Prior to treatment, DMSO was diluted in PMS until 0,1% DMSO was made. Each compound was solved in 0,1% DMSO (3: 2,5 mg/mL, 1: 2.5 mg/mL, 10: 1 mg/mL, 5: 1mg/mL, 7: 0,6 mg/mL, 16: 1 mg/mL 17: 1 mg/mL, 44: 0,6 mg/mL, 36: 1mg/mL.
(§2) Next the different stock solution with 150 µg and 250 µg of each compound per 1 ml culture solution was made by adding the 0,1% DMSO compound solution in the right amount to culture solution (DMEM with 10% FCS and 1% penicillin-streptomycin).
(§3) Three different cell lines were used for the experiments. GM637 is an immortalized cell line originated from human skin fibroblasts, bought in 2001, UKE1 and […] are cell lines originated from human dermal fibroblasts (dog ear) nurtured from patients, between 60 and 80 years old being completely anonymized at the clinic for dermatology, Rostock.
(§4) The cells lines were thawed and were cultured in Dulbeco's modified Eagel's medium (DMEM, Gibcon, USA) supplemented with 10% fetal bovine serum (FBS, Gibco, Germany) and 1% penicillin-streptomycin (PS, Gibco, USA) at 37 °C in a humidified atmosphere with 5% CO2 until a sufficient number of cells were culture in T75 culture bottles. After reaching a confluence of 80% to 90%, the cells were separated using trypsin and counted. Next 100.000 cells were planted in each well of a 6 well plate in replicates, washed and the DMEM solution with 150 µg and 250 µg/ml substance/DMEM and DMEM with no substance as control was added.
(§5) After 48h and after 72h 100 µl supernatant of each well was taken, labelled and frozen at -20° degree Celsius. Prior to perform ELISA the medium was depending on the cell line diluted 1:50 or 1:100 with PBS, otherwise the concentration of collagen fibers was too high to be measured.
(§6) The media containing the secretion of the different human dermal fibroblasts GM637, UKE1, and HRO159N were collected after 48h and 72h treatment. Secretion of pro-collagen 1 was assessed with human pro-collagen I alpha 1 DuoSet ELISA (R&D systems, USA) To prepare the Elisa plate, Human pro-Collagen I a capture antibody was diluted in ELISA plate-coating buffer at 4µg/mL working concentration. 100 µl of diluted Capture antibody was added to 96-well microplates and incubated over night at room temperature. After three times washing with Wash Buffer, microplates were blocked by adding 300 µl of Reagent Diluent for 1 hour at room temperature. To proceed the ELISA Human pro-collagen I α1 Standards were diluted in Reagent Diluent (range between 31,3 pg/mL - 2000 pg/mL) and 100 µl of standards or conditioned mediums were added to designated wells. Microplates were incubated at room temperature for 2 hours. Human Pro-collagen I α1 Detection Antibody was prepared in Reagent Diluent at […] working concentration and 100 µl of diluted Detection Antibody was applied for 2 hours at room temperature after extensive washing. Then, working solution of Streptavidin-HRP with Reagent Diluent was prepared by diluting 1:40 and added into each well. After 20 minutes at room temperature incubation, microplates were washed and applied with 100 µl of Substrate Solution for 20 minutes followed by Stop Solution after washing. Finally, signals were measured at 450 nm absorbance by PHomo Microplate Reader (Autobio, China) The amount of pro-collagen 1 was quantified by extrapolating the signal into a linear range of a pro-collagen 1 standard curve. Screening compounds were typically tested at concentration of 150 and 250 µg/mL. The dose response data for each compound and the different cell lines were obtained by nonlinear regression analysis using Prism 9 software (GraphPad, La Jolla, USA).

MRCVI = assay: ELISA of secreted pro-collagen I alpha 1 (Type I Collagen) from human lung fibroblast MRCVI
Method: as §1, §2
As cell line MRCV1 was used, which is an immortalized cell line originated from human lung fibroblast, bought in 2001.
as §4, with “cell line was” for “cells lines were”, “and” for “and were”
as §5
The medium containing the secretion of the human lung fibroblast MRCVI was collected after 48h and 72h treatment. Secretion of pro-collagen 1 was assessed with human pro-collagen I alpha 1 DuoSet ELISA (R&D systems, USA) To prepare the Elisa plate, Human pro-Collagen I a capture antibody was diluted in ELISA plate-coating buffer at 4µg/mL working concentration. 100 µl of diluted Capture antibody was added to 96-well microplates and incubated over night at room temperature. After three times washing with Wash Buffer, microplates were blocked by adding 300 µl of Reagent Diluent for 1 hour at room temperature. To proceed the ELISA Human pro-collagen I α1 Standards were diluted in Reagent Diluent (range between 31,3 pg/mL - 2000 pg/mL) and 100 µl of standards or conditioned mediums were added to designated wells. Microplates were incubated at room temperature for 2 hours. Human Pro-collagen I α1 Detection Antibody was prepared in Reagent Diluent at […] working concentration and 100 µl of diluted Detection Antibody was applied for 2 hours at room temperature after extensive washing. Then, working solution of Streptavidin-HRP with Reagent Diluent was prepared by diluting 1:40 and added into each well. After 20 minutes at room temperature incubation, microplates were washed and applied with 100 µl of Substrate Solution for 20 minutes followed by Stop Solution after washing. Finally, signals were measured at 450 nm absorbance by PHomo Microplate Reader (Autobio, China) The amount of pro-collagen 1 was quantified by extrapolating the signal into a linear range of a pro-collagen 1 standard curve. Screening compounds were typically tested at concentration of 150 and 250 µg/mL. The dose response data for each compound and the different cell lines were obtained by nonlinear regression analysis using Prism 9 software (GraphPad, La Jolla, USA).

UKE1 = assay: ELISA of secreted pro-collagen I alpha 1 (Type I Collagen) from human dermal fibroblasts UKE1
Method: as §1, §2, §3, §4, §5, §6

GM637 = assay: ELISA of secreted pro-collagen I alpha 1 (Type I Collagen) from human dermal fibroblasts GM637
Method: as §1, §2, §3, §4, §5, §6

c1nn2nnnc2c2cscc12 [Compound 17, Tetrazolo[1,5-b]thieno[3,4-d]pyridazine]
collagen reduction percentage in comparison to the standard (100 %) (HRO159N; 48h): 34% | collagen reduction percentage in comparison to the standard (100 %) (HRO159N; 72 h): 4% | collagen reduction percentage in comparison to the standard (100 %) (MRCVI; 48h, 150 µg): 33% | collagen reduction percentage in comparison to the standard (100 %) (MRCVI; 48h, 250 µg): 16% | collagen reduction percentage in comparison to the standard (100 %) (MRCVI; 72 h, 150 µg): 35% | collagen reduction percentage in comparison to the standard (100 %) (MRCVI; 72 h, 250 µg): 11% | collagen reduction percentage in comparison to the standard (100 %) (UKE1; 48h, 150 µg): 102% | collagen reduction percentage in comparison to the standard (100 %) (UKE1; 48h, 250 µg): 86% | collagen reduction percentage in comparison to the standard (100 %) (UKE1; 72 h, 150 µg): 76% | collagen reduction percentage in comparison to the standard (100 %) (UKE1; 72 h, 250 µg): 59% | collagen reduction percentage in comparison to the standard (100 %) (GM637; 48h, 150 µg): 90% | collagen reduction percentage in comparison to the standard (100 %) (GM637; 48h, 250 µg): 62% | collagen reduction percentage in comparison to the standard (100 %) (GM637; 72 h, 150 µg): 103% | collagen reduction percentage in comparison to the standard (100 %) (GM637; 72 h, 250 µg): 55%
